Experimental data published in US11806359B2 (priority 2020, dated 2023).

Legend:
[1] = tested on: Vero cells
[2] = tested on: HTLV-1; test: HTLV-1 transmission in SLB1/huPBMC co-culture, p19Gag ELISA (Example 22); type: cell-based, human T-cell leukemia virus type-1; settings: 15 min or 3 hrs pre-treatment, 72 hrs co-culture
[3] = tested on: VERO CCL-81 cells
[4] = tested on: HIV-1; settings: cited from earlier work
[5] = tested on: SARS-CoV-2; test: SARS-CoV-2 treatment post-infection in VERO CCL-81 cells, viral titer (Example 34); type: cell-based; settings: treated at 12 h and 24 h post-infection, no pretreatment
[6] = tested on: DENV2 (08-10381 Montserrat strain); test: CPE-based antiviral assay, DENV2, neutral red readout (Example 14); type: cell-based, Dengue virus; settings: 7 days post infection
Procedure: A CPE-based antiviral assay was performed by infecting target cells in the presence or absence of test compositions, at a range of concentrations. […] cytopathic effects and cell death. […] For CPE-based assays, cell viability was determined with a neutral red readout. Viable cells incorporate neutral red in their lysosomes. Uptake of neutral red relies on the ability of live cells to maintain a lower pH inside their lysosomes than in the cytoplasm, and this active process requires ATP. Once inside the lysosome, the neutral red dye becomes charged and is retained intracellularly. […] The amount of neutral red in solution was quantified by reading the absorbance (optical density) of each well at 490 nm […]
Cytotoxic effects were evaluated in uninfected cells by comparing viability in the presence of inhibitors to the viability of mock-treated cells. Cytotoxicity was determined by an XTT viability assay, which was conducted at the same timepoint as the readout for the corresponding infection assay.
Test compositions were dissolved in 100% methanol. […] When possible, the EC50 and CC50 of the composition was determined for each assay using GraphPad Prism software. […]
Protection of DENV2-induced cytopathic effect (CPE) with Neutral Red readout: For the DENV2 antiviral assay, the 08-10381 Montserrat strain was used. […]

[7] = tested on: SARS-CoV-2; test: SARS-CoV-2 genome equivalents in supernatant by qRT-PCR (Example 39); type: cell-based; settings: 24 hours-post infection, four highest doses
Description: The Vero 81 cells described above were subjected to genome analysis determine whether the inhibition of SARS-CoV-2 was at the level of total or infectious particle production. RNA was extracted from the cell culture supernatants of the prophylactic study, and genomic equivalents were quantified via qRT-PCR (Example 39). The prophylactic effect of oleandrin, initially observed via infectious assay, was confirmed at the level of genome equivalents. […]
To quantify genome copies for the samples, 200 μl of sample was extracted with a 5:1 volume ratio of TRIzol LS (Ambion, Carlsbad, Calif.), utilizing standard manufacturers protocols and resuspending in 11 μl water. Extracted RNA were tested for SARS-CoV-2 by qRT-PCR following a previously published assay (26). Briefly, the N gene was amplified using the following primers and probe: forward primer [5′-[…]-3′] (SEQ ID NO. 1); reverse primer [5′-[…]-3′] (SEQ ID NO. 2); and probe [5′-FAM-[…]-TAMRA-3′; (SEQ ID NO. 3)]. […]

[8] = tested on: adenovirus; test: Antiviral activity against adenovirus; type: cell-based

**Q.** Which results are given for `CO[C@H]1C[C@H](O[C@H]2CC[C@@]3(C)[C@H](CC[C@@H]4[C@@H]3CC[C@]3(C)[C@@H](C5=CC(=O)OC5)[C@@H](OC(C)=O)C[C@]43O)C2)O[C@@H](C)[C@@H]1O` [oleandrin]?
**A.** toxicity to Vero cells [1]: not overly toxic; transmission of HTLV-1 in co-culture [2]: inhibited the transmission of HTLV-1; cellular toxicity [3]: no cellular toxicity was observed; anti-viral activity against HIV-1 [4]: anti-HIV activity; antiviral activity post infection with a single treatment [5]: able to exert antiviral activity; efficacy against Dengue virus [6]: demonstrates efficacy; SARS-CoV-2 genomes in the supernatant [7]: significantly decreased; activity against adenovirus [8]: insufficiently active
